Experimental data from PMC3254257 (Bioconjugate Chemistry, 2011).

Tests used:
Aqueous solubility = assay type: physicochemical; settings: water
Stability in serum = assay type: in vitro ADME, bovine; settings: 37°C; for relative serum stability: 100% FBS, 10 h
[1] = Tetrazine cycloaddition kinetics with norbornene; assay type: physicochemical; settings: PBS pH 7.4, 37°C, 5% DMSO, excess NB
[2] = Tetrazine cycloaddition kinetics with TCO; assay type: physicochemical; settings: among tetrazines of this study

SMILES: c1ccc(-c2nnc(-c3ccccc3)nn2)cc1 [3,6-diphenyl tetrazine, reference compound]
- aqueous solubility (Aqueous solubility): not soluble to any measurable amount

SMILES: Cl.NCc1ccc(-c2nnc(-c3ccccn3)nn2)cc1 [Tetrazine 3, (4-(6-(Pyridin-2-yl)-1,2,4,5-tetrazin-3-yl)phenyl)methanamine hydrochloride]
- time to formation of a precipitate in FBS (Stability in serum; FBS, serum stability could not be measured): 1.5 to 2 h

SMILES: Cl.NCc1ccc(-c2nnc(-c3ncccn3)nn2)cc1 [Tetrazine 4, (4-(6-(Pyrimidin-2-yl)-1,2,4,5-tetrazin-3-yl)phenyl)methanamine hydrochloride]
- relative serum stability (Stability in serum): least stable
- cycloaddition kinetics with NB compared to hydrogen substituted tetrazine 1 [1]: faster kinetics

SMILES: Cc1nnc(CCCCCN)nn1.Cl [Tetrazine 6, 5-(6-Methyl-1,2,4,5-tetrazin-3-yl)pentan-1-amine hydrochloride]
- relative serum stability (Stability in serum): best serum stability
- cycloaddition kinetics with NB compared to hydrogen substituted tetrazine 1 [1]: slower cycloaddition reactions
- aqueous solubility (Aqueous solubility): extremely water soluble
- relative cycloaddition kinetics with TCO [2]: slowest reaction kinetics
